Reference: patent US12077503B2, “Substituted cyclic amides and their use as herbicides” (FMC CORPORATION, priority 2015, dated 2024)

Legend:
Experiment in all cases: Test D preemergence
Type in all cases: in vivo
Conditions in all cases: scale 0 to 100
[1] = system: Galium (catchweed bedstraw, Galium aparine)
Source text: (§1) Seeds of plant species selected from bluegrass (annual bluegrass, Poa annua), blackgrass (Alopecurus myosuroides), canarygrass (littleseed canarygrass, Phalaris minor), chickweed (common chickweed, Stellaria media), Galium (catchweed bedstraw, Galium aparine), bromegrass, downy (downy bromegrass, Bromus tectorum), field poppy (Papaver rhoeas), field violet (Viola arvensis), foxtail, green (green foxtail, Setaria viridis), deadnettle (henbit deadnettle, Lamium amplexicaule), ryegrass, Italian (Italian ryegrass, Lolium multiflorum), Kochia (Kochia scoparia), lambsquarters (Chenopodium album), oilseed rape (Brassica napus), pigweed (Amaranthus retroflexus), chamomile (scentless chamomile, Matricaria inodora), Russian thistle (Salsola kali), speedwell (bird's-eye speedwell, Veronica persica), barley, spring (spring barley, Hordeum vulgare), wheat, spring (spring wheat, Triticum aestivum), buckwheat, wild (wild buckwheat, Polygonum convolvulus), mustard, wild (wild mustard, Sinapis arvensis), oat, wild (wild oat, Avena fatua), radish, wild (wild radish, Raphanus raphanistrum), windgrass (Apera spica-venti), barley, winter (winter barley Hordeum vulgare), and wheat, winter (winter wheat, Triticum aestivum) were planted into a silt loam soil and treated preemergence with test chemicals formulated in a non-phytotoxic solvent mixture which included a surfactant.
(§2) Treated plants and controls were maintained in a controlled growth environment approximately 21 d after which time all species were compared to controls and visually evaluated. Plant response ratings, summarized in Table D, are based on a scale of 0 to 100 where 0 is no effect and 100 is complete control. A dash (-) response means no test result.

Kochia (Kochia scoparia) = system: Kochia (Kochia scoparia)
Source text: as §1, §2

[2] = system: Russian thistle (Salsola kali)
Source text: as §1, §2

[3] = system: barley, spring (spring barley, Hordeum vulgare)
Source text: as §1, §2

[4] = system: barley, winter (winter barley Hordeum vulgare)
Source text: as §1, §2

[5] = system: blackgrass (Alopecurus myosuroides)
Source text: as §1, §2

[6] = system: bluegrass (annual bluegrass, Poa annua)
Source text: as §1, §2

[7] = system: bromegrass, downy (downy bromegrass, Bromus tectorum)
Source text: as §1, §2

[8] = system: buckwheat, wild (wild buckwheat, Polygonum convolvulus)
Source text: as §1, §2

[9] = system: canarygrass (littleseed canarygrass, Phalaris minor)
Source text: as §1, §2

[10] = system: chamomile (scentless chamomile, Matricaria inodora)
Source text: as §1, §2

[11] = system: chickweed (common chickweed, Stellaria media)
Source text: as §1, §2

[12] = system: field poppy (Papaver rhoeas)
Source text: as §1, §2

[13] = system: field violet (Viola arvensis)
Source text: as §1, §2

[14] = system: foxtail, green (green foxtail, Setaria viridis)
Source text: as §1, §2

[15] = system: mustard, wild (wild mustard, Sinapis arvensis)
Source text: as §1, §2

[16] = system: oat, wild (wild oat, Avena fatua)
Source text: as §1, §2

[17] = system: oilseed rape (Brassica napus)
Source text: as §1, §2

[18] = system: ryegrass, Italian (Italian ryegrass, Lolium multiflorum)
Source text: as §1, §2

[19] = system: wheat, spring (spring wheat, Triticum aestivum)
Source text: as §1, §2

[20] = system: wheat, winter (winter wheat, Triticum aestivum)
Source text: as §1, §2

[21] = system: windgrass (Apera spica-venti)
Source text: as §1, §2

SMILES: CN1CC(c2cccc(C(F)(F)F)c2)C(C(=O)Nc2ccccc2S(C)(=O)=O)C1=O (stereo not drawn) [Compound 637]
- Plant response rating: Galium ([1]; 31 g ai/ha): 0
- Plant response rating: Galium ([1]; 62 g ai/ha): 20
- Plant response rating: Galium ([1]; 125 g ai/ha): 30
- Plant response rating: Galium ([1]; 250 g ai/ha): 10
- Plant response rating: Kochia (Kochia (Kochia scoparia); 31 g ai/ha): 5
- Plant response rating: Kochia (Kochia (Kochia scoparia); 62 g ai/ha): 0
- Plant response rating: Kochia (Kochia (Kochia scoparia); 125 g ai/ha): 35
- Plant response rating: Kochia (Kochia (Kochia scoparia); 250 g ai/ha): 85
- Plant response rating: Russian Thistle ([2]; 31 g ai/ha): 0
- Plant response rating: Russian Thistle ([2]; 62 g ai/ha): 0
- Plant response rating: Russian Thistle ([2]; 125 g ai/ha): 10
- Plant response rating: Russian Thistle ([2]; 250 g ai/ha): 50
- Plant response rating: Barley, Spring ([3]; 31 g ai/ha): 0
- Plant response rating: Barley, Spring ([3]; 62 g ai/ha): 20
- Plant response rating: Barley, Spring ([3]; 125 g ai/ha): 40
- Plant response rating: Barley, Spring ([3]; 250 g ai/ha): 70
- Plant response rating: Barley, Winter ([4]; 31 g ai/ha): 0
- Plant response rating: Barley, Winter ([4]; 62 g ai/ha): 0
- Plant response rating: Barley, Winter ([4]; 125 g ai/ha): 50
- Plant response rating: Barley, Winter ([4]; 250 g ai/ha): 60
- Plant response rating: Blackgrass ([5]; 31 g ai/ha): 10
- Plant response rating: Blackgrass ([5]; 62 g ai/ha): 10
- Plant response rating: Blackgrass ([5]; 125 g ai/ha): 45
- Plant response rating: Blackgrass ([5]; 250 g ai/ha): 50
- Plant response rating: Bluegrass ([6]; 31 g ai/ha): 5
- Plant response rating: Bluegrass ([6]; 62 g ai/ha): 25
- Plant response rating: Bluegrass ([6]; 125 g ai/ha): 75
- Plant response rating: Bluegrass ([6]; 250 g ai/ha): 100
- Plant response rating: Bromegrass, Downy ([7]; 31 g ai/ha): 0
- Plant response rating: Bromegrass, Downy ([7]; 62 g ai/ha): 10
- Plant response rating: Bromegrass, Downy ([7]; 125 g ai/ha): 25
- Plant response rating: Bromegrass, Downy ([7]; 250 g ai/ha): 40
- Plant response rating: Buckwheat, Wild ([8]; 31 g ai/ha): 0
- Plant response rating: Buckwheat, Wild ([8]; 62 g ai/ha): 10
- Plant response rating: Buckwheat, Wild ([8]; 125 g ai/ha): 15
- Plant response rating: Buckwheat, Wild ([8]; 250 g ai/ha): 80
- Plant response rating: Canarygrass ([9]; 31 g ai/ha): 0
- Plant response rating: Canarygrass ([9]; 62 g ai/ha): 0
- Plant response rating: Canarygrass ([9]; 125 g ai/ha): 50
- Plant response rating: Canarygrass ([9]; 250 g ai/ha): 70
- Plant response rating: Chamomile ([10]; 31 g ai/ha): 0
- Plant response rating: Chamomile ([10]; 125 g ai/ha): 90
- Plant response rating: Chamomile ([10]; 250 g ai/ha): 90
- Plant response rating: Chickweed ([11]; 31 g ai/ha): 0
- Plant response rating: Chickweed ([11]; 62 g ai/ha): 5
- Plant response rating: Chickweed ([11]; 125 g ai/ha): 65
- Plant response rating: Chickweed ([11]; 250 g ai/ha): 75
- Plant response rating: Field Poppy ([12]; 31 g ai/ha): 100
- Plant response rating: Field Poppy ([12]; 62 g ai/ha): 100
- Plant response rating: Field Poppy ([12]; 125 g ai/ha): 100
- Plant response rating: Field Poppy ([12]; 250 g ai/ha): 100
- Plant response rating: Field Violet ([13]; 31 g ai/ha): 0
- Plant response rating: Field Violet ([13]; 62 g ai/ha): 0
- Plant response rating: Field Violet ([13]; 125 g ai/ha): 0
- Plant response rating: Field Violet ([13]; 250 g ai/ha): 0
- Plant response rating: Foxtail, Green ([14]; 31 g ai/ha): 75
- Plant response rating: Foxtail, Green ([14]; 62 g ai/ha): 80
- Plant response rating: Foxtail, Green ([14]; 125 g ai/ha): 95
- Plant response rating: Foxtail, Green ([14]; 250 g ai/ha): 100
- Plant response rating: Mustard, Wild ([15]; 31 g ai/ha): 5
- Plant response rating: Mustard, Wild ([15]; 62 g ai/ha): 5
- Plant response rating: Mustard, Wild ([15]; 125 g ai/ha): 15
- Plant response rating: Mustard, Wild ([15]; 250 g ai/ha): 15
- Plant response rating: Oat, Wild ([16]; 31 g ai/ha): 20
- Plant response rating: Oat, Wild ([16]; 62 g ai/ha): 30
- Plant response rating: Oat, Wild ([16]; 125 g ai/ha): 75
- Plant response rating: Oat, Wild ([16]; 250 g ai/ha): 85
- Plant response rating: Oilseed Rape ([17]; 31 g ai/ha): 0
- Plant response rating: Oilseed Rape ([17]; 62 g ai/ha): 40
- Plant response rating: Oilseed Rape ([17]; 125 g ai/ha): 40
- Plant response rating: Oilseed Rape ([17]; 250 g ai/ha): 65
- Plant response rating: Ryegrass, Italian ([18]; 31 g ai/ha): 0
- Plant response rating: Ryegrass, Italian ([18]; 62 g ai/ha): 0
- Plant response rating: Ryegrass, Italian ([18]; 125 g ai/ha): 20
- Plant response rating: Ryegrass, Italian ([18]; 250 g ai/ha): 20
- Plant response rating: Wheat, Spring ([19]; 31 g ai/ha): 5
- Plant response rating: Wheat, Spring ([19]; 62 g ai/ha): 30
- Plant response rating: Wheat, Spring ([19]; 125 g ai/ha): 80
- Plant response rating: Wheat, Spring ([19]; 250 g ai/ha): 70
- Plant response rating: Wheat, Winter ([20]; 31 g ai/ha): 5
- Plant response rating: Wheat, Winter ([20]; 62 g ai/ha): 40
- Plant response rating: Wheat, Winter ([20]; 125 g ai/ha): 60
- Plant response rating: Wheat, Winter ([20]; 250 g ai/ha): 75
- Plant response rating: Windgrass ([21]; 31 g ai/ha): 10
- Plant response rating: Windgrass ([21]; 62 g ai/ha): 25
- Plant response rating: Windgrass ([21]; 125 g ai/ha): 85
- Plant response rating: Windgrass ([21]; 250 g ai/ha): 95
